Measurements as given in PMC9283466, “In silico identification of two peptides with antibacterial activity against multidrug-resistant Staphylococcus aureus” (NPJ Biofilms and Microbiomes, 2022).
Bridge positions count the residues as written; N and C are the ends. Peptide text beside a SMILES is read from it.

What was measured:
[1] = Peptide-lipid interaction and insertion, lipid monolayer; format: binding; settings: for Speed of insertion: initial surface pressure 30+/-0.5 mN/m; for Critical pressure of insertion πc: peptide 1 µg/mL
Experimental: Peptide–lipid interaction was measured using a lipid monolayer formed at the air:water interface with total lipid extracts and pure lipids. Total lipids were extracted from overnight cultures of MRSA or human erythrocytes using the Folch extraction procedure[14],[40]. Extracted total lipids were dried, re-solubilised in chloroform:methanol (2:1, v/v) and stored at −20 °C under nitrogen. Pure prokaryotic and eukaryotic lipids used were: cardiolipin, POPC (1-palmitoyl-2-oleoyl-glycero-3-phosphocholine), POPE (1-palmitoyl-2-oleoyl-sn-glycero-3-phosphoethanolamine) and POPG (1-palmitoyl-2-oleoyl-sn-glycero-3-phospho-(1’-rac-glycerol) (Avanti Polar Lipid). LTA (Lipoteichoic acid from S. aureus) and LPS (lipopolysaccharide from E. coli) (Invitrogen, UK) were also tested. Pure lipids were reconstituted in chloroform:methanol (2:1 v/v) at 1 mg/ml and stored at −20 °C under nitrogen. For peptide–lipid interaction assay, lipid monolayers at the air:water interface were formed by spreading total lipid extract or pure lipids at the surface of 800 µl of sterile PBS using a 50 µl Hamilton’s syringe. Lipids were added until the surface pressure reached the desired value. After 5–10 min of incubation allowing the evaporation of the solvent and stabilisation of the initial surface pressure, 8 µl of HG2 or HG4 diluted in sterile PBS at 100 µg/ml were injected into the 800 µl sub-phase of PBS under the lipid monolayer (pH 7.4, volume 800 µl) using a 10 µl Hamilton’s syringe giving a final concentration of peptide of 1 µg/ml, as preliminary experiments had shown that this concentration was optimal. The variation of the surface pressure caused by peptide insertion was then continuously monitored using a fully automated microtensiometer (µTROUGH SX, Kibron Inc, Finland) until it reached equilibrium (maximal surface pressure increase is usually obtained after 15–25 min). To reflect physiological situations, the initial surface pressure was fixed at 30 ± 0.5 mN/m in some experiments as this value corresponds to a lipid packing density theoretically equivalent to that of the outer leaflet of the eukaryotic and prokaryotic cell membrane. In other experiments, the critical pressure of insertion of HG2 or HG4 in the total lipid extracts and pure lipids was measured as follows[14],[56]. Briefly, in these experiments, the initial pressure of the lipid monolayer was set up at different values (between 10 and 30 mN/m) and the variation of pressure caused by the injection of the peptide was measured. […] All experiments were carried out in a controlled atmosphere at 20 ± 1 °C and data were analyzed using the Firmware 2.5 programme (Kibron Inc.). The accuracy of the system under our experimental conditions was determined to be ±0.25 mN/m for surface pressure measurements.

[2] = test system: LPS-driven NF-kB activation, eLUCidate Raw 264.7 NF-kB reporter cell line; assay: Anti-inflammatory activity, NF-kB luciferase reporter; format: cell-based, murine; settings: 10 ng/ml LPS from E. coli, 6 h
Experimental: (§1) The inhibitory activity of HG2, HG4 and comparator compounds against LPS and LTA was assessed using eLUCidate™ Raw 264.7 NF-kB reporter cell line (AMSBIO) as previously described. The eLUCidate NF-kB reporter cell line is a stably transfected Raw 264.7 cell line which expresses the Renilla luciferase reporter gene under the transcriptional control of the NF-kB response element, a key transcription factor involved in immune and inflammatory responses. This reporter cell line has been used to measure the induction of various toll-like receptors (TLR) by ligands, including LPS and LTA, therefore providing an effective way to evaluate inhibitors of their activations. Briefly, cells were grown and maintained following the manufacturer’s instructions in Dulbecco’s modified essential medium (DMEM) supplemented with 10% fetal calf serum (FCS), 1% L-glutamine, 1% antibiotics (Invitrogen) and containing 3 µg/ml of puromycin (Sigma-Aldrich, UK). To test the inhibitory activity of HG2 and HG4 on LPS or LTA-driven NF-kB activation, eLUCidate™ Raw 264.7 cells grown on 75 cm^2 flasks were detached using trypsin-EDTA solution (Thermofisher, UK) and seeded into 96-well cell culture plates (Greiner Bio-one, UK) at ~25,000 cells per well (counted using Mallasez’s chamber). The next day, wells were emptied, and cells were exposed to optimal concentrations of LPS or LTA determined from preliminary experiments, (i.e. 10 ng/ml of LPS from E. coli or 10 µg/ml of LTA from S. aureus (Invivogen, UK)) in the presence of increasing concentrations of HG2 or HG4 (from 0 to 500 µg/ml, serial 1:2 dilutions). Pyrrolidine dithiocarbamate (PDTC, 100 µM) and polymyxin B (PMB, 100 µM) (Sigma-Aldrich, UK) were used as positive controls based on their well-known activity as anti-inflammatory molecules and blockers/neutralisers of LPS and LTA, respectively. Importantly, all steps were performed using non-pyrogenic plastics and RNase/DNase molecular biology tips to limit the risk of the presence of a trace of LPS/LTA. After 6 h incubation at 37 °C and 5% CO2, wells were emptied, and the cells were treated with 70 µl of ice-cold PBS containing 1% Triton X-100. After 10 min incubation on ice under orbital shaking at 200 rpm, 50 µL of cell lysates were collected and transferred into white 96-well luminescence plates (Dominique Dutscher) already containing 100 µL of Renilla luciferase substrate (Yelen, France). Luminescence signals of the wells were immediately measured using a microplate reader (Biotek Synergy Mx, UK). The luminescence values were expressed as a percentage of control inflammation corresponding to values obtained after treatment with LPS or LTA in the absence of an inhibitor. The IC50 values of PDTC, PMB, HG2 or HG4 on LPS or LTA-mediated inflammation (i.e. the concentration of molecule causing a reduction of 50% of the luciferase’s induction caused by LPS or LTA) were calculated using GraphPad® Prism 7 software.

[3] = test system: LTA-driven NF-kB activation, eLUCidate Raw 264.7 NF-kB reporter cell line; assay: as above; format: cell-based, murine; settings: 10 µg/ml LTA from S. aureus, 6 h
Experimental: as §1

G. mellonella larvae = test system: G. mellonella larvae; set-up: species or system Galleria mellonella; settings: in vivo
Experimental: All procedures of larvae rearing, injection and G. mellonella killing assays were conducted using validated methods. In each assay, ten larvae weighing between 280–300 mg each were randomly selected. Larvae with the previous melanisation of the cuticle were excluded from the experiments. All experiments were designed in at least four experimental and biological replicates.
Firstly, we evaluated the putative toxic effect of the peptides HG2 and HG4 in G. mellonella. […] After injection with peptides, the larvae were maintained at 37 °C in the dark. Phenotypic aspects such as melanisation and mobility of the larvae as well as survival were monitored every 24 for 96 h. Larvae not inoculated with AMPs were used as controls.

Structure (SMILES)	Speed of insertion ([1]; Cardiolipin)	Critical pressure of insertion πc ([1]; Cardiolipin)	Speed of insertion ([1]; PC)	Critical pressure of insertion πc ([1]; PC)	Speed of insertion ([1]; PE)	Critical pressure of insertion πc ([1]; PE)	Speed of insertion ([1]; PG)	Critical pressure of insertion πc ([1]; PG)	IC50, LPS-mediated inflammation [2]	IC50, LTA-mediated inflammation [3]	larvae survival rate, uninfected larvae (G. mellonella larvae)	toxic effect in G. mellonella (G. mellonella larvae)
CC[C@H](C)[C@H](NC(=O)[C@H](CC(C)C)NC(=O)[C@H](CC(C)C)NC(=O)[C@H](CC(C)C)NC(=O)[C@H](CCCCN)NC(=O)[C@H](CCCCN)NC(=O)[C@@H](N)CCSC)C(=O)N[C@@H](CC(C)C)C(=O)N[C@@H](Cc1ccccc1)C(=O)N[C@H]1CSSC[C@@H](C(=O)N[C@@H](CCCCN)C(=O)N[C@@H](CCCCN)C(=O)N[C@@H](C)C(=O)N2CCC[C@H]2C(N)=O)NC(=O)CNC(=O)[C@H](C)NC(=O)[C@H](CC(C)C)NC(=O)[C@H](C)NC(=O)[C@H](CC(C)C)NC(=O)[C@H](C)NC(=O)[C@H](CC(C)C)NC1=O [HG2] (H-MKKLLLILFCLALALAGCKKAP-NH2; disulfide 10-18; N-terminus assumed)	4.74 mN/m/10 sec	41.30 mN/m	8.58 mN/m/10 sec	62.79 mN/m	1.89 mN/m/10 sec	39.49 mN/m	3.70 mN/m/10 sec	51.19 mN/m	73.99 ± 3.40 µg/mL	91.49 ± 6.03 µg/mL	100%	no toxic effect
CC[C@H](C)[C@H](NC(=O)[C@H](CC(C)C)NC(=O)[C@H](CC(C)C)NC(=O)[C@H](C)NC(=O)CNC(=O)CNC(=O)[C@@H](NC(=O)[C@@H](NC(=O)[C@H](CC(C)C)NC(=O)[C@H](C)NC(=O)[C@H](CC(C)C)NC(=O)CNC(=O)[C@H](CC(C)C)NC(=O)[C@@H](N)C(C)C)[C@@H](C)CC)C(C)C)C(=O)N[C@@H](CCCCN)C(=O)N[C@@H](CCCCN)C(=O)N[C@@H](CCCCN)C(=O)N[C@@H](CCC(N)=O)C(=O)N[C@@H](C)C(=O)N[C@@H](CCCCN)C(=O)N[C@@H](CO)C(N)=O [HG4] (H-VLGLALIVGGALLIKKKQAKS-NH2; N-terminus and C-terminus assumed)	2.44 mN/m/10 sec	46.49 mN/m	0.50 mN/m/10 sec	28.8 mN/m	0.20 mN/m/10 sec	33.9 mN/m	2.48 mN/m/10 sec	47.55 mN/m	113.80 ± 5.00 µg/mL	26.45 ± 3.11 µg/mL	100%	no toxic effect
